Laboratory results published in paper PMC5281649 (European Journal of Nuclear Medicine and Molecular Imaging, 2016).
pEC50, pIC50: −log10 of the molar value. Read-outs that look alike come from different tables or passages of the source.

Legend:
[1] = Safety assessments in this PET study; type: in vivo, human
Protocol: The safety of sembragiline was assessed by monitoring vital signs, laboratory tests and adverse events (AEs), and by evaluating the risk of suicide using the Columbia Suicide Severity Rating Scale.

[2] = 1 and 5 mg daily; moderate AD; compared with placebo; cited from earlier work
MAO-B enzyme = biological target: MAO-B enzyme; set-up: method as in doi:10.1016/j.jalz.2013.05.1757; conditions: MAO enzymatic activity and displacement assays; read-out: IC50 from in vitro affinity assays of the MAO-B enzyme; cited from earlier work
brain MAO-B enzyme [3] = biological target: T1, brain MAO-B enzyme (Homo sapiens, UniProt P27338); assay: Plasma concentration–MAO-B enzyme inhibition relationship (simple Emax model); type: in vivo; conditions: for Emax (maximum MAO-B occupancy) / EC50: pre-scan plasma concentration; for EC50: read-out: EC50 (plasma concentration at half-maximal occupancy) (converted)
T1 sequence (P27338 1-520): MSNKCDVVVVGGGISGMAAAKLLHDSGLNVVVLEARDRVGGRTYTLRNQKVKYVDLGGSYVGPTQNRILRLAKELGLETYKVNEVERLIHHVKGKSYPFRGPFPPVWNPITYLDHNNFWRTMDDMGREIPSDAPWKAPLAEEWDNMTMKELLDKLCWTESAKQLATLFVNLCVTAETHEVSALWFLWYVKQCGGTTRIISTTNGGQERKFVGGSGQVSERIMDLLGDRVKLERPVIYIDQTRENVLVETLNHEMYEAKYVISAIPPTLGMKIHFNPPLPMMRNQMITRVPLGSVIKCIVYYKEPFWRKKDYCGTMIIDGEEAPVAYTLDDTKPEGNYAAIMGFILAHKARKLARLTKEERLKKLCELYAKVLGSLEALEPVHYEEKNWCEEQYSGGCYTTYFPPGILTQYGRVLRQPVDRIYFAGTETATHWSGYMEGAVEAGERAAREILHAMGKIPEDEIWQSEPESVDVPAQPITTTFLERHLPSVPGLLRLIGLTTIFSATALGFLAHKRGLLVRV
Protocol: The PK/PD analysis was performed using Phoenix WinNonlin software version 6.2 (Pharsight Corporation, Mountain View, CA, USA).

MAO-A = tested on: MAO-A; set-up: method as in doi:10.1016/j.jalz.2013.05.1757; conditions: MAO-B over MAO-A; cited from earlier work
[4] = set-up: method as in PMID 22451094; conditions: phase 1 and 2 studies, approximately 1040 subjects; cited from earlier work
brain MAO-B enzyme [5] = biological target: T1, brain MAO-B enzyme; conditions: ref Roche data on file, cited from earlier work; for Brain MAO-B inhibition: young healthy subjects
[6] = AD patients, frontal cortex, steady state
[7] = AD patients, hippocampus, steady state
[8] = AD patients, striatum, steady state
[9] = EC subjects, frontal cortex, steady state
[10] = EC subjects, hippocampus, steady state
[11] = EC subjects, striatum, steady state

Emax (maximum MAO-B occupancy) (brain MAO-B enzyme [3]; [6]): 81.1 (CV%: 3.2)
EC50 (brain MAO-B enzyme [3]; [6]): 3.1 nM
Emax (maximum MAO-B occupancy) (brain MAO-B enzyme [3]; [7]): 85.9 (CV%: 4.1)
EC50 (brain MAO-B enzyme [3]; [7]): 3.77 nM
Emax (maximum MAO-B occupancy) (brain MAO-B enzyme [3]; [8]): 87.8 (CV%: 1.8)
EC50 (brain MAO-B enzyme [3]; [8]): 3.24 nM
Emax (maximum MAO-B occupancy) (brain MAO-B enzyme [3]; [9]): 80.1 (CV%: 8.9)
EC50 (brain MAO-B enzyme [3]; [9]): 4.59 nM
Emax (maximum MAO-B occupancy) (brain MAO-B enzyme [3]; [10]): 89.1 (CV%: 9.6)
EC50 (brain MAO-B enzyme [3]; [10]): 5.99 nM
Emax (maximum MAO-B occupancy) (brain MAO-B enzyme [3]; [11]): 88.8 (CV%: 7.5)
EC50 (brain MAO-B enzyme [3]; [11]): 4.88 nM
Estimated Emax of MAO-B inhibition (brain MAO-B enzyme [3]; across ROIs and for both populations, steady state): 80–89%
pEC50 (brain MAO-B enzyme [3]; across ROIs and for both populations, steady state, read-out: Estimated EC50 (plasma concentration)): 8.23 to 8.53
Emax (brain MAO-B enzyme [3]; across ROIs and for both populations, steady state, read-out: Estimated Emax of MAO-B inhibition): 80 to 90%
Sembragiline concentration needed for near-complete MAO-B inhibition in the brain (brain MAO-B enzyme [3]; regardless of the population): around 20 ng/mL
Plasma concentration at which the plateau in MAO-B inhibition occurred (brain MAO-B enzyme [3]; steady state, AD patients and EC subjects): 20 to 50 ng/mL
SMILES: CC(=O)N[C@H]1CC(=O)N(c2ccc(OCc3cccc(F)c3)cc2)C1 [sembragiline]
AEs reported as drug-related ([1]; 16 treated subjects (AD and EC)): 11 of 20
Changes in laboratory parameters, vital signs or ECG measurements ([1]; AD patients and EC subjects): no clinically significant changes
Tolerability ([1]; AD patients and EC subjects, 0.1–5 mg daily for 6–15 days): well tolerated
Primary efficacy outcome on cognition (ADAS-Cog11) [2]: failed on the primary efficacy outcome on cognition
pIC50 (MAO-B enzyme): 8.22 to 8.30
Potency in inhibiting MAO-B relative to MAO-A (MAO-A): approximately 600 fold
Safety and tolerability [4]: safe and well tolerated
Brain penetration (brain MAO-B enzyme [5]; healthy young men, PET imaging): crosses the blood–brain barrier
Brain MAO-B inhibition (brain MAO-B enzyme [5]; 5 mg daily for 2–10 days, cortical regions): 52–78%
Brain MAO-B inhibition (brain MAO-B enzyme [5]; 5 mg daily for 2–10 days, subcortical regions): 73–87%
Brain MAO-B inhibition (brain MAO-B enzyme [5]; 15 mg, cortical regions): 68–74%
Brain MAO-B inhibition (brain MAO-B enzyme [5]; 15 mg, subcortical regions): 83–86%
